pIC50: −log10 of the molar value. Like-named read-outs stand apart in the source and are kept apart here. Marks after values point to notes of the source that are not given here.
Columns and labels:
[1] = tested on: influenza virus M2 protein expression; assay type: cell-based, influenza virus A/Wuhan/359/95
MDCK cells = experiment: Cytotoxicity assay in MDCK cells monitored by CPE; settings: 48 h, Table 1
[2] = tested on: influenza A/Hanfang/359/95(H3N2); experiment: microbe, parasite or virus in culture; assay type: cell-based, influenza A virus
[3] = tested on: influenza A/FM/1/47(H1N1); experiment: microbe, parasite or virus in culture; assay type: cell-based, influenza A virus
viral hemagglutinin = experiment: Hemagglutination inhibition assay; assay type: biochemical, influenza virus; settings: 2 fold serial diluted from 40 μg/mL, chicken erythrocytes
[4] = tested on: influenza B (B/Jifang/13/97); experiment: Anti-influenza CPE assay in MDCK cells, oseltamivir-null B/Jifang/13/97; assay type: cell-based; settings: Influenza B virus, read-out: IC50 B/Jifang/13/97
[5] = tested on: neuraminidase of the two influenza virus A strain; experiment: Neuraminidase inhibition assay (MUNANA), two influenza A strains; assay type: biochemical; settings: MUNANA substrate
[6] = tested on: influenza A/FM/1/47-MA (H1N1) virus; assay type: in vivo, mice; settings: for numbers of surviving animals: survivors/total; for Mean lung score / Lung consolidation: day 6 post-virus exposure; for Lung consolidation: score 0-4; for Mean day to death: b.i.d x 7, mean survival time of mice dying on or before day 14

Row | Compound | pIC50 ([2]; Influenza A virus, H3N2, MDCK) | pIC50 ([3]; Influenza A virus, H1N1, MDCK) | pIC50 [4] | melting point [°C] | other results
1 | NC12CC3CC(CC(C3)C1)C2 [Amantadine] | – | – | – | – | effect on influenza virus M2 protein expression [1]: significantly inhibited
2 | COC(=O)c1ccc(F)c(O)c1 [Compound 1, Methyl 4-fluoro-3-hydroxybenzoate] | < 2.93 | < 3.41 | – | – | TC50 (MDCK cells): >1175.50 µM; IC50 A/Hanfang/359/95 [2]: no activity; IC50 A/FM/1/47 [3]: no activity
3 | COC(=O)c1ccc(F)c(O[C@@H]2O[C@H](COC(C)=O)[C@@H](OC(C)=O)[C@H](OC(C)=O)[C@H]2OC(C)=O)c1 [Compound 1a, Methyl 4-fluoro-3-((2S,3R,4S,5R,6R)-3,4,5-triacetoxy-6-(acetoxymethyl)-tetrahydro-2H-pyran-2-yloxy)benzoate] | 4.35 | 4.46 | 4.48 | – | effect on influenza virus M2 protein expression ([1]; MDCK cells infected with A/Wuhan/359/95, 300TCID50, 24 hours post infection): no effect; inhibitory effect on hemagglutination (viral hemagglutinin): did not show an inhibitory effect; IC50 on neuraminidase [5]: > 40 mg/L; numbers of surviving animals ([6]; 40 mg/kg/day intragastrically): 1/10; Mean lung score ([6]; 40 mg/kg/day po): 2.61 ± 0.85; Lung consolidation ([6]; 40 mg/kg/day po): 3.56; numbers of surviving animals ([6]; 80 mg/kg/day intragastrically): 6/10; Mean day to death ([6]; 80 mg/kg/day po): 11.3 days; Mean lung score ([6]; 80 mg/kg/day po): 1.82 ± 0.82; Lung consolidation ([6]; 80 mg/kg/day po): 2.25; pIC50 [3]: 4.46
4 | COC(=O)c1ccc(F)c(O[C@@H]2O[C@H](COC(C)=O)[C@H](OC(C)=O)[C@H](OC(C)=O)[C@H]2OC(C)=O)c1 [Compound 1b, Methyl 4-fluoro-3-((2S,3R,4S,5S,6R)-3,4,5-triacetoxy-6-(acetoxymethyl)-tetrahydro-2H-pyran-2-yloxy)benzoate] | 4.03 | < 3.88 | – | – | –
5 | COC(=O)c1c(OC)cc(O[C@@H]2O[C@H](COC(C)=O)[C@@H](OC(C)=O)[C@H](OC(C)=O)[C@H]2OC(C)=O)cc1OC [Compound 2a, Methyl 2,6-dimethoxy-4-((2S,3R,4S,5R,6R)-3,4,5-triacetoxy-6-(acetoxymethyl)-tetrahydro-2H-pyran-2-yloxy)benzoate] | < 4.86 | 4.94 | 5.20 | 121 to 123 | –
6 | COC(=O)c1ccc(N)c(O[C@@H]2O[C@H](COC(C)=O)[C@@H](OC(C)=O)[C@H](OC(C)=O)[C@H]2OC(C)=O)c1 [Compound 4a, Methyl 4-amino-3-((2S,3R,4S,5R,6R)-3,4,5-triacetoxy-6-(acetoxymethyl)-tetrahydro-2H-pyran-2-yloxy)benzoate] | < 3.87 | 3.92 | – | 126 to 128 | –
7 | COC(=O)c1cccc(O[C@@H]2O[C@H](COC(C)=O)[C@H](OC(C)=O)[C@H](OC(C)=O)[C@H]2OC(C)=O)c1 [Compound 6b, Methyl 3-((2S,3R,4S,5S,6R)-3,4,5-triacetoxy-6-(acetoxymethyl)-tetrahydro-2H-pyran-2-yloxy)benzoate] | < 3.86 | < 3.86 | – | 154 to 156 | –
8 | COC(=O)c1ccc(O[C@@H]2O[C@H](COC(C)=O)[C@@H](OC(C)=O)[C@H](OC(C)=O)[C@H]2OC(C)=O)c(F)c1 [Compound 7a, Methyl 3-fluoro-4-((2S,3R,4S,5R,6R)-3,4,5-triacetoxy-6-(acetoxymethyl)-tetrahydro-2H-pyran-2-yloxy)benzoate] | 3.99 | < 3.88 | – | 121 to 123 | –
9 | COC(=O)c1ccc(O[C@@H]2O[C@H](COC(C)=O)[C@H](OC(C)=O)[C@H](OC(C)=O)[C@H]2OC(C)=O)c(F)c1 [Compound 7b, Methyl 3-fluoro-4-((2S,3R,4S,5S,6R)-3,4,5-triacetoxy-6-(acetoxymethyl)-tetrahydro-2H-pyran-2-yloxy)benzoate] | < 3.88 | 3.88 | – | 121 to 123 | –
10 | COC(=O)c1ccc(F)cc1O[C@@H]1O[C@H](COC(C)=O)[C@H](OC(C)=O)[C@H](OC(C)=O)[C@H]1OC(C)=O [Compound 8b, Methyl 4-fluoro-2-((2S,3R,4S,5S,6R)-3,4,5-triacetoxy-6-(acetoxymethyl)-tetrahydro-2H-pyran-2-yloxy)benzoate] | < 3.40 | < 3.40 | – | 136 to 138 | TC50 (MDCK cells): >399.66 µM
11 | COC(=O)c1c(F)cccc1O[C@@H]1O[C@H](COC(C)=O)[C@@H](OC(C)=O)[C@H](OC(C)=O)[C@H]1OC(C)=O [Compound 9a, Methyl 2-fluoro-6-((2S,3R,4S,5R,6R)-3,4,5-triacetoxy-6-(acetoxymethyl)-tetrahydro-2H-pyran-2-yloxy)benzoate] | < 4.35 | 4.46 | < 4.35 | 130 to 132 | –
12 | COC(=O)c1c(F)cccc1O[C@@H]1O[C@H](COC(C)=O)[C@H](OC(C)=O)[C@H](OC(C)=O)[C@H]1OC(C)=O [Compound 9b, Methyl 2-fluoro-6-((2S,3R,4S,5S,6R)-3,4,5-triacetoxy-6-(acetoxymethyl)-tetrahydro-2H-pyran-2-yloxy)benzoate] | < 3.88 | 4.18 | < 3.88 | 130 to 132 | –
13 | CC(=O)OC[C@H]1O[C@@H](Oc2cccc(F)c2C)[C@H](OC(C)=O)[C@@H](OC(C)=O)[C@@H]1OC(C)=O [Compound 10a, (2R,3R,4S,5R,6S)-2-(Acetoxymethyl)-6-(3-fluoro-2-methylphenoxy)-tetrahydro-2H-pyran-3,4,5-triyl triacetate] | < 3.84 | < 3.84 | – | 127 to 129 | –
14 | CC(=O)OC[C@H]1O[C@@H](Oc2cccc(F)c2C)[C@H](OC(C)=O)[C@@H](OC(C)=O)[C@H]1OC(C)=O [Compound 10b, (2R,3S,4S,5R,6S)-2-(Acetoxymethyl)-6-(3-fluoro-2-methylphenoxy)-tetrahydro-2H-pyran-3,4,5-triyl triacetate] | 4.31 | < 4.28 | 4.40 | 127 to 129 | –
15 | CC(=O)OC[C@H]1O[C@@H](Oc2ccncc2)[C@H](OC(C)=O)[C@@H](OC(C)=O)[C@@H]1OC(C)=O [Compound 11a, (2R,3R,4S,5R,6S)-2-(Acetoxymethyl)-6-(pyridin-4-yloxy)-tetrahydro-2H-pyran-3,4,5-triyl triacetate] | 4.39 | 4.28 | < 4.28 | 132 to 134 | –
16 | CC(=O)OC[C@H]1O[C@@H](Oc2ncccc2F)[C@H](OC(C)=O)[C@@H](OC(C)=O)[C@@H]1OC(C)=O [Compound 12a, (2R,3R,4S,5R,6S)-2-(Acetoxymethyl)-6-(3-fluoropyridin-2-yloxy)-tetrahydro-2H-pyran-3,4,5-triyl triacetate] | < 4.30 | 4.60 | < 4.30 | 140 to 142 | –
17 | CC(=O)OCc1ccc(F)c(O[C@@H]2O[C@H](COC(C)=O)[C@@H](OC(C)=O)[C@H](OC(C)=O)[C@H]2OC(C)=O)c1 [Compound 13a, (2R,3R,4S,5R,6S)-2-(Acetoxymethyl)-6-(5-(acetoxymethyl)-2-fluorophenoxy)-tetrahydro-2H-pyran-3,4,5-triyl triacetate] | < 3.89 | < 3.89 | – | – | –
18 | OCc1ccc(F)c(O[C@@H]2O[C@H](CO)[C@@H](O)[C@H](O)[C@H]2O)c1 [Compound 14a, (2S,3R,4S,5S,6R)-2-(2-Fluoro-5-(hydroxymethyl)phenoxy)-6-(hydroxymethyl)-tetrahydro-2H-pyran-3,4,5-triol] | < 3.18 | < 3.18 | – | – | TC50 (MDCK cells): >657.31 µM
19 | OCc1ccc(O[C@@H]2O[C@H](CO)[C@@H](O)[C@H](O)[C@H]2O)cc1 [Gastrodin] | 3.79 | < 3.63 | – | – | TC50 (MDCK cells): >698.62 µM
20 | CCOC(=O)C1=C[C@@H](OC(CC)CC)[C@H](NC(C)=O)[C@@H](N)C1 [Oseltamivir, reference compound] | 5.68 | 4.24 | < 4.00 | – | effect on influenza virus M2 protein expression [1]: has inhibitory effect
21 | NC(=O)c1ncn([C@@H]2O[C@H](CO)[C@@H](O)[C@H]2O)n1 [Ribavirin, reference compound] | 4.93 | 4.87 | 4.94 | – | effect on influenza virus M2 protein expression [1]: significant inhibitory effect; influenza virus induced cytopathic effect ([2]; 10 μg/mL, strain not given): completely inhibits; Mean day to death ([6]; 100 mg/kg/day po): 14.0 * days; Mean lung score ([6]; 100 mg/kg/day po): 1.31 ± 0.34; Lung consolidation ([6]; 100 mg/kg/day po): 0.50 *; % Survivors ([6]; mouse, in vivo): 100 (10/10) %
22 | Ethyl 3,5-dichloro-4-((2S,3R,4S,5R,6R)-3,4,5-triacetoxy-6-(acetoxymethyl)-tetrahydro-2H-pyran-2-yloxy)benzoate [Compound 3a] | – | – | – | – | TC50 (MDCK cells): >362.77 µM; pIC50 [2]: < 3.44; pIC50 [3]: < 3.44
23 | Ethyl 4-fluoro-2-((2S,3R,4S,5R,6R)-3,4,5-triacetoxy-6-(acetoxymethyl)-tetrahydro-2H-pyran-2-yloxy)-benzoate [Compound 8a] | – | – | – | – | TC50 (MDCK cells): 277.10 µM; pIC50 [2]: 4.35; pIC50 [3]: 4.08
24 | Methyl 4-((2S,3R,4S,5R,6R)-3,4,5-triacetoxy-6-(acetoxymethyl)-tetrahydro-2H-pyran-2-yloxy)benzoate [Compound 5a] | – | – | – | – | TC50 (MDCK cells): 232.53 µM; pIC50 [2]: 4.03; pIC50 [3]: < 3.87
